We go through one molecule from patent US20210161868A1, “ANTI-INFLAMMATORY THERAPY IN ARRHYTHMOGENIC CARDIOMYOPATHY (ACM)” (Beth Israel Deaconess Medical Center, Inc., priority 2018, published 2021).

The subject of one assay is models of ACM. The settings on record: multiple in vitro and in vivo models, human iPSC-cardiac myocytes; cited from earlier work.
The subject of assay [1] is neonatal rat ventricular myocytes (NRVMs) expressing JUP^2157del2. The conditions noted are these: NRVMs expressing mutant plakoglobin, previous reports; cited from earlier work.
The test system of another assay is ACM mice. The experiment in a line: Arrhythmias in ACM mice treated with SB216763 (previous unpublished observations). The class given is in vivo.

“Also recorded” adds a separate entry of the source. A value given as a limit tells only on which side of the number the result lay.

Take `Cn1cc(C2=C(c3ccc(Cl)cc3Cl)C(=O)NC2=O)c2ccccc21` [SB216763]: in the assay on models of ACM, the “full ACM disease phenotype” value was “prevent and/or reverse”. Also, the “in vitro ACM features (protein redistribution, apoptosis, cytokines)” value in assay [1] was “blocked; also recorded: normalized”. In addition, the “time to return of arrhythmias after cessation of treatment” value in the assay with ACM mice (ACM mice) was not above 48 h. The “time to cessation of arrhythmias” value with ACM mice (ACM mice under treatment) was not above 24 h.
